Assay results published in patent publication US20110059015A1, “VACCINE” (priority 2002, published 2011).

Test system: Fab S8-gp120 III-B binding
Test: Peptide inhibition of gp120-Fab S8 binding (ELISA)
Parameters: species or system HIV-1
Description: Peptides from selected phage clones were synthesised by Isogen (Maarssen, The Netherlands). For binding competition experiments, purified S8 Fab (1 μg/ml) was incubated (4° C., 4 h) with several dilutions of the corresponding peptide before addition to gp120III-B (2 μg/ml)-coated microtiter wells.

[1] = peptide 50 μg/ml (124R1: a similar concentration), Fab S8 1 μg/ml

Row | Sequence | inhibition of Fab S8-gp120 binding [1] | inhibition of Fab S8-gp120 binding (peptide concentration not given)
1 | FLQPPDFSHLPP [Fab 124R1] | 15% | –
2 | GIQLANPPRLYG [Fab 124R9] | 50% | –
3 | LLADTTHHRPWT [Fab 124R4] | 50% | –
4 | QEVGKAMYAPPI [ENV-9, peptide corresponding to gp120 amino acid residues 428-439] | – | 50%
